The text below walks through data of US20170037028A1 (BAYER PHARMA AKTIENGESELLSCHAFT, priority 2013, published 2017).

Broadly, the IC50 is the concentration that gives 50% inhibition.

This test concerns the target T1, GLUT1 (Homo sapiens, UniProt P11166).
T1 sequence (P11166 1-492): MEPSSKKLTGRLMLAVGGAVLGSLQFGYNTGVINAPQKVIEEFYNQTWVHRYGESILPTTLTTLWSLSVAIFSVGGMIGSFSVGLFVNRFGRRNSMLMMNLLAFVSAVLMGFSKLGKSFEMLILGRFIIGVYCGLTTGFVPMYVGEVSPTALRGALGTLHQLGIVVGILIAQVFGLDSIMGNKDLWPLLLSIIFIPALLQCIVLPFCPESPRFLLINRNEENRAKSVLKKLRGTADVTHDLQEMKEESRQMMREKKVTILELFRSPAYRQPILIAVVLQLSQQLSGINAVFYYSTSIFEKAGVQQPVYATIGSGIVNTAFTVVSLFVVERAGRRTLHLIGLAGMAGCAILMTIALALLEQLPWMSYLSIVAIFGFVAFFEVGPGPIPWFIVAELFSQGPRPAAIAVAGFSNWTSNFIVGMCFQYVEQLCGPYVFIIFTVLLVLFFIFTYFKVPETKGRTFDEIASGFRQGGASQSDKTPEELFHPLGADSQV
In words: Indirect measurement of GLUT1 activity by quantification of intracellular ATP levels (glucose induced ATP increase). Format: cell-based. On the set-up: endogenous in cells; host or cells: DLD1 or CHO-K1. The settings on record: read-out: IC50 regarding glucose induced ATP increase (GLUT1 inhibition). A digest of the protocol:
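Intracellular ATP was measured by CellTiter-Glo luminescence as an indirect readout of transport: glucose-driven for GLUT1, fructose-driven for GLUT2. DLD1 or CHO-K1 cells were used alongside an oxidative phosphorylation inhibitor. Beforehand, cells were held overnight in glucose-free 1% FCS medium to deplete ATP.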
As for `Cc1nn(Cc2ccc(C#N)nc2)c(C)c1NC(=O)c1cc(C(F)(F)F)nc2cc(F)c(F)cc12` [Example 183, N-{1-[(6-cyanopyridin-3-yl)methyl]-3,5-dimethyl-1H-pyrazol-4-yl}-6,7-difluoro-2-(trifluoromethyl)quinoline-4-carboxamide], the IC50 came out at 0.107 µM. Turning to `Cc1nn(Cc2ccc(F)cc2)c(C)c1NC(=O)c1ccnc2ccc(Br)cc12` [Example 184, 6-bromo-N-[1-(4-fluorobenzyl)-3,5-dimethyl-1H-pyrazol-4-yl]quinoline-4-carboxamide], the IC50 was found to be 0.11 µM.

`Cc1cc(C(=O)Nc2c(C)nn(Cc3ccc(F)c(F)c3)c2C)c2cc(Br)ccc2n1` [Example 185, 6-bromo-N-[1-(3,4-difluorobenzyl)-3,5-dimethyl-1H-pyrazol-4-yl]-2-methylquinoline-4-carboxamide]: the IC50 is 0.122 µM. To `Cc1ccc2nc(C)cc(C(=O)Nc3c(C)nn(Cc4ccc(F)c(Cl)c4)c3C)c2c1` [Example 186, N-[1-(3-chloro-4-fluorobenzyl)-3,5-dimethyl-1H-pyrazol-4-yl]-2,6-dimethylquinoline-4-carboxamide] belongs 0.126 µM; to `Cc1nn(Cc2ccn(C)n2)c(C)c1NC(=O)c1cc(C(F)(F)F)nc2ccc(Br)cc12` [Example 187, 6-bromo-N-{3,5-dimethyl-1-[(1-methyl-1H-pyrazol-3-yl)methyl]-1H-pyrazol-4-yl}-2-(trifluoromethyl)quinoline-4-carboxamide], 0.131 µM; to `Cc1ccc2nc(C)cc(C(=O)Nc3c(C(F)(F)F)nn(Cc4ccc(C#N)cc4)c3C)c2c1` [Example 188, N-[1-(4-cyanobenzyl)-5-methyl-3-(trifluoromethyl)-1H-pyrazol-4-yl]-2,6-dimethylquinoline-4-carboxamide], 0.161 µM. In the case of `Cc1nn(Cc2ccc(F)c(F)c2)c(C)c1NC(=O)c1cc(C(F)(F)F)nc2cc(Br)ccc12` [Example 189, 7-bromo-N-[1-(3,4-difluorobenzyl)-3,5-dimethyl-1H-pyrazol-4-yl]-2-(trifluoromethyl)quinoline-4-carboxamide] it was 0.165 µM; in that of `Cc1nn(Cc2ccc(F)c(Cl)c2)c(C)c1NC(=O)c1cc(C(F)(F)F)nc2ccc(Br)cc12` [Example 190, 6-bromo-N-[1-(3-chloro-4-fluorobenzyl)-3,5-dimethyl-1H-pyrazol-4-yl]-2-(trifluoromethyl)quinoline-4-carboxamide], 0.171 µM; in that of `Cc1nn(Cc2ccc(F)c(Cl)c2)c(C)c1NC(=O)c1cc(C(F)(F)F)nc2cc(F)c(F)cc12` [Example 191, N-[1-(3-chloro-4-fluorobenzyl)-3,5-dimethyl-1H-pyrazol-4-yl]-6,7-difluoro-2-(trifluoromethyl)quinoline-4-carboxamide], 0.171 µM.

Turning to `COc1ccc2nccc(C(=O)Nc3c(C)nn(Cc4ccc(F)cc4)c3C)c2c1` [Example 192, N-[1-(4-fluorobenzyl)-3,5-dimethyl-1H-pyrazol-4-yl]-6-methoxyquinoline-4-carboxamide], the concentration for half-maximal inhibition (IC50) amounted to 0.177 µM. For the molecule `Cc1c(NC(=O)c2cc(C(F)(F)F)nc3cc(F)c(F)cc23)c(C(F)(F)F)nn1Cc1ccc(F)cc1` [Example 193, 6,7-difluoro-N-[1-(4-fluorobenzyl)-5-methyl-3-(trifluoromethyl)-1H-pyrazol-4-yl]-2-(trifluoromethyl)quinoline-4-carboxamide], the IC50 was found to be 0.215 µM. In the case of `COCCN(C(=O)c1cc(C(F)(F)F)nc2ccc(Br)cc12)c1c(C)nn(Cc2ccc(F)cc2)c1C` [Example 194, 6-bromo-N-[1-(4-fluorobenzyl)-3,5-dimethyl-1H-pyrazol-4-yl]-N-(2-methoxyethyl)-2-(trifluoromethyl)quinoline-4-carboxamide], the IC50 is 0.229 µM.

As for `Cc1nn(CC2CCCCC2)c(C)c1NC(=O)c1cc(C(F)(F)F)nc2cc(F)c(F)cc12` [Example 195, N-[1-(cyclohexylmethyl)-3,5-dimethyl-1H-pyrazol-4-yl]-6,7-difluoro-2-(trifluoromethyl)quinoline-4-carboxamide], the IC50 was found to be 0.272 µM. Consider `Cc1nn(Cc2cccnc2)c(C)c1NC(=O)c1cc(C(F)(F)F)nc2cc(F)c(F)cc12` [Example 196, N-[3,5-dimethyl-1-(pyridin-3-ylmethyl)-1H-pyrazol-4-yl]-6,7-difluoro-2-(trifluoromethyl)quinoline-4-carboxamide], for which the IC50 amounted to 0.286 µM.

In the case of `Cc1c(NC(=O)c2cc(C(F)(F)F)nc3ccc(Br)cc23)c(C(F)(F)F)nn1Cc1ccc(F)c(F)c1` [Example 197, 6-bromo-N-[1-(3,4-difluorobenzyl)-5-methyl-3-(trifluoromethyl)-1H-pyrazol-4-yl]-2-(trifluoromethyl)quinoline-4-carboxamide], the IC50 was determined as 0.333 µM. Take `Cc1nn(Cc2ccc(F)cc2)c(C)c1NC(=O)c1cc(N2CCOCC2)nc2ccccc12` [Example 198, N-[1-(4-fluorobenzyl)-3,5-dimethyl-1H-pyrazol-4-yl]-2-(morpholin-4-yl)quinoline-4-carboxamide]: the IC50 was found to be 0.438 µM. In the case of `Cc1c(NC(=O)c2cc(C(F)(F)F)nc3c(Cl)cc(Cl)cc23)c(C(F)(F)F)nn1Cc1ccc(F)c(F)c1` [Example 199, 6,8-dichloro-N-[1-(3,4-difluorobenzyl)-5-methyl-3-(trifluoromethyl)-1H-pyrazol-4-yl]-2-(trifluoromethyl)quinoline-4-carboxamide] it was 0.441 µM; in that of `Cc1nn(Cc2ccc(F)cc2)c(C)c1N(Cc1ccccc1)C(=O)c1cc(C(F)(F)F)nc2ccc(Br)cc12` [Example 200], 0.539 µM; in that of `Cc1ccc2nc(C)cc(C(=O)Nc3c(C)nn(Cc4ccc(C#N)nc4)c3C)c2c1` [Example 201, N-{1-[(6-cyanopyridin-3-yl)methyl]-3,5-dimethyl-1H-pyrazol-4-yl}-2,6-dimethylquinoline-4-carboxamide], 0.557 µM. Regarding `Cc1ccc2nc(C)cc(C(=O)Nc3c(C)nn(Cc4ccc(C(=O)NCCO)cc4)c3C)c2c1` [Example 202, N-(1-{4-[(2-hydroxyethyl)carbamoyl]benzyl}-3,5-dimethyl-1H-pyrazol-4-yl)-2,6-dimethylquinoline-4-carboxamide], the half-maximal inhibitory concentration (IC50) was 0.562 µM.

`Cc1ccc2nc(C)cc(C(=O)Nc3c(C(F)(F)F)nn(Cc4ccc(F)c(F)c4)c3C)c2c1` [Example 203, N-[1-(3,4-difluorobenzyl)-5-methyl-3-(trifluoromethyl)-1H-pyrazol-4-yl]-2,6-dimethylquinoline-4-carboxamide]: the IC50 amounted to 0.602 µM.

For the molecule `Cc1ccc2nc(C)cc(C(=O)Nc3c(C(F)(F)F)nn(Cc4ccc(F)cc4F)c3C)c2c1` [Example 204, N-[1-(2,4-difluorobenzyl)-5-methyl-3-(trifluoromethyl)-1H-pyrazol-4-yl]-2,6-dimethylquinoline-4-carboxamide], the IC50 is 0.613 µM. To `Cc1c(NC(=O)c2cc(C(F)(F)F)nc3c(Cl)cc(Cl)cc23)c(C(F)(F)F)nn1Cc1ccc(F)cc1F` [Example 205, 6,8-dichloro-N-[1-(2,4-difluorobenzyl)-5-methyl-3-(trifluoromethyl)-1H-pyrazol-4-yl]-2-(trifluoromethyl)quinoline-4-carboxamide] belongs 0.613 µM; to `Cc1ccc2nc(C)cc(C(=O)Nc3c(C)nn(CC4CCCCC4)c3C)c2c1` [Example 206, N-[1-(cyclohexylmethyl)-3,5-dimethyl-1H-pyrazol-4-yl]-2,6-dimethylquinoline-4-carboxamide], 0.667 µM; to `Cc1c(NC(=O)c2cc(C(F)(F)F)nc3cc(F)c(F)cc23)c(C(F)(F)F)nn1Cc1ccc(F)c(F)c1` [Example 207, N-[1-(3,4-difluorobenzyl)-5-methyl-3-(trifluoromethyl)-1H-pyrazol-4-yl]-6,7-difluoro-2-(trifluoromethyl)quinoline-4-carboxamide], 0.688 µM. With `Cc1ccc2nc(C)cc(C(=O)Nc3c(C)nn(Cc4cccnc4)c3C)c2c1` [Example 208, N-[3,5-dimethyl-1-(pyridin-3-ylmethyl)-1H-pyrazol-4-yl]-2,6-dimethylquinoline-4-carboxamide], the IC50 amounted to 0.741 µM.

Consider `Cc1nn(Cc2ccc(F)cc2)c(C)c1NC(=O)c1cc(C(=O)N(C)C)nc2ccccc12` [Example 209, N^4-[1-(4-fluorobenzyl)-3,5-dimethyl-1H-pyrazol-4-yl]-N^2,N^2-dimethylquinoline-2,4-dicarboxamide], for which the IC50 was 0.817 µM.

As for `Cc1c(NC(=O)c2cc(C(F)(F)F)nc3cc(F)c(F)cc23)c(C(F)(F)F)nn1Cc1ccc(F)cc1F` [Example 210, N-[1-(2,4-difluorobenzyl)-5-methyl-3-(trifluoromethyl)-1H-pyrazol-4-yl]-6,7-difluoro-2-(trifluoromethyl)quinoline-4-carboxamide], the IC50 amounted to 0.849 µM.

Consider `Cc1nn(Cc2ccc(F)cc2)c(C)c1NC(=O)c1ccnc2ccccc12` [Example 211, N-[1-(4-fluorobenzyl)-3,5-dimethyl-1H-pyrazol-4-yl]quinoline-4-carboxamide], for which the IC50 was determined as 0.957 µM. To `Cc1nn(Cc2ccc(C#N)cc2)c(C)c1NC(=O)c1cc(C(N)=O)nc2cc(F)c(Cl)cc12` [Example 212, 6-chloro-N^4-[1-(4-cyanobenzyl)-3,5-dimethyl-1H-pyrazol-4-yl]-7-fluoroquinoline-2,4-dicarboxamide] belongs 0.0006 µM.
